This is an account of results in US9663525B2, “Pyrazolopyrimidinyl inhibitors of ubiquitin-activating enzyme” (Millennium Pharmaceuticals, Inc., priority 2012, dated 2017).

As a reminder, the IC50 is the concentration that inhibits the measured activity by half.

The assay deals with recombinant human UAE (Homo sapiens (Human), UniProt P22314). Description: Ubiquitin Activating Enzyme (UAE) HTRF assay, human UAE.
recombinant human UAE, sequence (P22314 whole entry): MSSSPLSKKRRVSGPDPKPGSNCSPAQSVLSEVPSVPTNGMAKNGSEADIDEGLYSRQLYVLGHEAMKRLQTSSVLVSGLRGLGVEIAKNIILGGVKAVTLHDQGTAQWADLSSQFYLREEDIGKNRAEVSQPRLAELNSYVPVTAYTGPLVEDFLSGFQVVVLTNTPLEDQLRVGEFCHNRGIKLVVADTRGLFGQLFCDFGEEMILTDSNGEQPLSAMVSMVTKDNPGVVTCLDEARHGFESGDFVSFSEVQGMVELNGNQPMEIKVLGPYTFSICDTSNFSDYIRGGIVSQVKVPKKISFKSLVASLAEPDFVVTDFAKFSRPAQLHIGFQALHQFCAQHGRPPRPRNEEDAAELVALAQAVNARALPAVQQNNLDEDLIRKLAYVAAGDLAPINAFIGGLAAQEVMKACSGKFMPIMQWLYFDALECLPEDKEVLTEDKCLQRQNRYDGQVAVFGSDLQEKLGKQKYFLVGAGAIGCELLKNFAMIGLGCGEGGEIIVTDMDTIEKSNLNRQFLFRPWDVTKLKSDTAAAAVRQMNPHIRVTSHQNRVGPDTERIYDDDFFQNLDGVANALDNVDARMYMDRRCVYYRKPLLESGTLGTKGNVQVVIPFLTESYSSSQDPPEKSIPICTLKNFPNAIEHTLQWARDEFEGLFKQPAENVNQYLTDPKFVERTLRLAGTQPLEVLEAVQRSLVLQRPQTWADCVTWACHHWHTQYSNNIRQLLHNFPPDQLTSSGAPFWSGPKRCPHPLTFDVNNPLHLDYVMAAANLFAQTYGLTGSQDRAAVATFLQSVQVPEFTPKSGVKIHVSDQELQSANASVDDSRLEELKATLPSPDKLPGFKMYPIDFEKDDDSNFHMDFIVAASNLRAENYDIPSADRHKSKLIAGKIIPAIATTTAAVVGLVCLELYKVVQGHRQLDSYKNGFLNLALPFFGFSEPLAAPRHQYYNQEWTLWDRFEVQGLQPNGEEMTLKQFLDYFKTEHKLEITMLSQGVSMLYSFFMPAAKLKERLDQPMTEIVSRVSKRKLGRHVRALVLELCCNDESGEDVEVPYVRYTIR

Method: After incubation for 120 minutes, quantification of the FRET is performed on the Pherostar (BMG).
For compounds whose values are marked with an asterisk (*), mouse UAE was used. For all other compounds, human UAE was used.

On to `Cc1sc(-c2ccccc2)nc1-c1cc2nccc(N[C@@H]3C[C@H](COS(N)(=O)=O)[C@@H](O)[C@H]3O)n2n1` (racemic) [Compound I-038, (rac)-[(1R,2R,3S,4R)-2,3-dihydroxy-4-{[2-(5-methyl-2-phenyl-1,3-thiazol-4-yl)pyrazolo[1,5-a]pyrimidin-7-yl]amino}cyclopentyl]methyl rel-sulfamate], for which the IC50 is under 10 nM.
On to `NS(=O)(=O)OC[C@H]1C[C@@H](Nc2ccnc3cc(-c4ccc5ccccc5n4)nn23)[C@H](O)[C@@H]1O` (racemic) [Compound I-042, (rac)-((1R,2R,3S,4R)-2,3-dihydroxy-4-(2-(quinolin-2-yl)pyrazolo[1,5-a]pyrimidin-7-ylamino)cyclopentyl)methyl rel-sulfamate], for which the IC50 was under 10 nM.
Consider `NS(=O)(=O)OC[C@H]1C[C@@H](Nc2ccnc3cc(-c4ccc5cccnc5c4)nn23)[C@H](O)[C@@H]1O` (racemic) [Compound I-043, (rac)-((1R,2R,3S,4R)-2,3-dihydroxy-4-(2-(quinolin-7-yl)pyrazolo[1,5-a]pyrimidin-7-ylamino)cyclopentyl)methyl rel-sulfamate], for which the IC50 is under 10 nM.
Consider `NS(=O)(=O)OC[C@H]1C[C@@H](Nc2ccnc3cc(-c4cccc5ccsc45)nn23)[C@H](O)[C@@H]1O` (racemic) [Compound I-045, (rac)-((1R,2R,3S,4R)-4-((2-(Benzo[b]thiophen-7-yl)pyrazolo[1,5-a]pyrimidin-7-yl)amino)-2,3-dihydroxycyclopentyl)methyl rel-sulfamate], for which the IC50 is under 10 nM.
`NS(=O)(=O)OC[C@H]1C[C@@H](Nc2ccnc3cc(-c4coc5ccccc45)nn23)[C@H](O)[C@@H]1O` (racemic) [Compound I-049, (rac)-((1R,2R,3S,4R)-4-(2-(benzofuran-3-yl)pyrazolo[1,5-a]pyrimidin-7-ylamino)-2,3-dihydroxycyclopentyl)methyl rel-sulfamate]: the IC50 is under 10 nM.
Same read-out and setting: under `NS(=O)(=O)OC[C@H]1C[C@@H](Nc2ccnc3cc(-c4cccc(OC(F)F)c4)nn23)[C@H](O)[C@@H]1O` (racemic) [Compound I-050, (rac)-((1R,2R,3S,4R)-4-((2-(3-(Difluoromethoxy)phenyl)pyrazolo[1,5-a-]pyrimidin-7-yl)amino)-2,3-dihydroxycyclopentyl)methyl rel-sulfamate] stands under 10 nM; under `NS(=O)(=O)OC[C@H]1C[C@@H](Nc2ccnc3cc(-c4cccc(Oc5ccccc5)c4)nn23)[C@H](O)[C@@H]1O` (racemic) [Compound I-051, (rac)-((1R,2R,3S,4R)-2,3-Dihydroxy-4-((2-(3-phenoxyphenyl)pyrazolo[1,5-a]pyrimidin-7-yl)amino)cyclopentyl)methyl rel-sulfamate], 10 to 100 nM.
For `CC(C)(C)c1cccc(-c2cc3nccc(N[C@@H]4C[C@H](COS(N)(=O)=O)[C@@H](O)[C@H]4O)n3n2)n1` (racemic) [Compound I-052, (rac)-((1R,2R,3S,4R)-4-(2-(6-tert-butylpyridin-2-yl)pyrazolo[1,5-a]pyrimidin-7-ylamino)-2,3-dihydroxycyclopentyl)methyl rel-sulfamate], the IC50 was under 10 nM.
Take `NS(=O)(=O)OC[C@H]1C[C@@H](Nc2ccnc3cc(-c4c[nH]c5ccc(Cl)cc45)nn23)[C@H](O)[C@@H]1O` (racemic) [Compound I-054, (rac)-[(1R,2R,3S,4R)-4-{[2-(5-chloro-1H-indol-3-yl)pyrazolo[1,5-a]pyrimidin-7-yl]amino}-2,3-dihydroxycyclopentyl]methyl rel-sulfamate]: the 50% inhibitory concentration (IC50) was under 10 nM.
As for `NS(=O)(=O)OC[C@H]1C[C@@H](Nc2ccnc3cc(-c4c[nH]c5cc(Cl)ccc45)nn23)[C@H](O)[C@@H]1O` (racemic) [Compound I-055, (rac)-[(1R,2R,3S,4R)-4-{[2-(6-chloro-1H-indol-3-yl)pyrazolo[1,5-a]pyrimidin-7-yl]amino}-2,3-dihydroxycyclopentyl]methyl rel-sulfamate], the IC50 was under 10 nM.
Consider `NS(=O)(=O)OC[C@H]1C[C@@H](Nc2ccnc3cc(-c4cccc5c4sc4ccccc45)nn23)[C@H](O)[C@@H]1O` (racemic) [Compound I-056, (rac)-((1R,2R,3S,4R)-4-((2-(Dibenzo[b,d]thiophen-4-yl)pyrazolo[1,5-a]pyrimidin-7-yl)amino)-2,3-dihydroxycyclopentyl)methyl rel-sulfamate], for which the IC50 was under 10 nM.
For `NS(=O)(=O)OC[C@H]1C[C@@H](Nc2ccnc3cc(-c4cc(Cl)ccc4OC(F)(F)F)nn23)[C@H](O)[C@@H]1O` (racemic) [Compound I-057, (rac)-((1R,2R,3S,4R)-4-(2-(5-chloro-2-(trifluoromethoxy)phenyl)pyrazolo[1,5-a]pyrimidin-7-ylamino)-2,3-dihydroxycyclopentyl)methyl rel-sulfamate], the concentration for half-maximal inhibition (IC50) was under 10 nM.
Consider `CC(C)(c1cccc(-c2cc3nccc(N[C@@H]4C[C@H](COS(N)(=O)=O)[C@@H](O)[C@H]4O)n3n2)c1)C(F)(F)F` (racemic) [Compound I-058, (rac)-((1R,2R,3S,4R)-2,3-dihydroxy-4-(2-(3-(1,1,1-trifluoro-2-methylpropan-2-yl)phenyl)pyrazolo[1,5-a]pyrimidin-7-ylamino)cyclopentyl)methyl rel-sulfamate], for which the IC50 is under 10 nM.
The same measure, in the same setting: under `NS(=O)(=O)OC[C@H]1C[C@@H](Nc2ccnc3cc(-c4ccnc(C(F)(F)F)c4)nn23)[C@H](O)[C@@H]1O` (racemic) [Compound I-059, (rac)-((1R,2R,3S,4R)-2,3-dihydroxy-4-(2-(2-(trifluoromethyl)pyridin-4-yl)pyrazolo[1,5-a]pyrimidin-7-ylamino)cyclopentyl)methyl rel-sulfamate] stands 10 to 100 nM; under `NS(=O)(=O)OC[C@H]1C[C@@H](Nc2ccnc3cc(-c4ccc(C(F)(F)F)s4)nn23)[C@H](O)[C@@H]1O` (racemic) [Compound I-060, (rac)-((1R,2R,3S,4R)-2,3-Dihydroxy-4-((2-(5-(trifluoromethyl)thiophen-2-yl)pyrazolo[1,5-a]pyrimidin-7-yl)amino)cyclopentyl)methyl rel-sulfamate], 10 to 100 nM.
Take `NS(=O)(=O)OC[C@H]1C[C@@H](Nc2ccnc3cc(-c4cccc5sccc45)nn23)[C@H](O)[C@@H]1O` (racemic) [Compound I-061, (rac)-((1R,2R,3S,4R)-4-((2-(Benzo[b]thiophen-4-yl)pyrazolo[1,5-a]pyrimidin-7-yl)amino)-2,3-dihydroxycyclopentyl)methyl rel-sulfamate]: the IC50 is under 10 nM.
Consider `NS(=O)(=O)OC[C@H]1C[C@@H](Nc2ccnc3cc(-c4ccc5c(c4)[nH]c4ccccc45)nn23)[C@H](O)[C@@H]1O` (racemic) [Compound I-062, (rac)-[(1R,2R,3S,4R)-4-{[2-(9H-carbazol-2-yl)pyrazolo[1,5-a]pyrimidin-7-yl]amino}-2,3-dihydroxycyclopentyl]methyl rel-sulfamate], for which the IC50 is under 10 nM.
Turning to `COc1ccc(C(C)(C)C)cc1-c1cc2nccc(N[C@@H]3C[C@H](COS(N)(=O)=O)[C@@H](O)[C@H]3O)n2n1` (racemic) [Compound I-063, (rac)-((1R,2R,3S,4R)-4-{[2-(5-tert-butyl-2-methoxyphenyl)pyrazolo[1,5-a]pyrimidin-7-yl]amino}-2,3-dihydroxycyclopentyl)methyl rel-sulfamate], the “% inhibition @0.111 μM” value (0.111 μM compound, human UAE) came to 100%.
